Source: patent US10752612B2, “PLK4 inhibitors” (LUDWIG INSTITUTE FOR CANCER RESEARCH LTD, priority 2015, dated 2020)

What follows are compounds tested against T1, human Plk4 kinase domain (aa 2-275) (Homo sapiens, UniProt O00444) (assay: Plk4 kinase assay (ADP-Glo)). Conditions: Table 1.
T1 construct: purified 6×His-tagged human Plk4 kinase domain (aa 2-275); 6xHis; made in house; host or cells: E. coli
T1 sequence (O00444 2-275): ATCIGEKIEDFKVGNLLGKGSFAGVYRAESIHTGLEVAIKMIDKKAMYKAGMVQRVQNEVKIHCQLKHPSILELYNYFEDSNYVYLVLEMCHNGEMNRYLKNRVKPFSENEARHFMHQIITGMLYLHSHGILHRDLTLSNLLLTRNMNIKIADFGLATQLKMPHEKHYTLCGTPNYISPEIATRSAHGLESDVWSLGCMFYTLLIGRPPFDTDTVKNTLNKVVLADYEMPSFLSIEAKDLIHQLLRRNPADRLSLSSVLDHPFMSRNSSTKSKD
Assay type: biochemical
Outline: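 Enzyme at 2.5-10 nM final, pH 8.0, reacted 4-16 hours at 25° C; ADP generation read by ADP-Glo luminescence. Ki derived from IC50 by Cheng-Prusoff or, for tight binders, Copeland formalism.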

SMILES	IC50
COc1c(Nc2cc(C)[nH]n2)nc(Sc2ccc(NC(C)=O)cc2)nc1N1CCNCC1	< 1 µM
CCOc1c(Nc2cc(C)[nH]n2)nc(Sc2ccc(NC(=O)C3CCCC3)cc2)nc1N1CCN(CCN(C)C)CC1	0.1 to 1 µM
COc1c(Nc2cc(C)[nH]n2)nc(Sc2ccc(S(=O)(=O)Cc3cccc([N+](=O)[O-])c3F)cc2F)nc1N1CCCC[C@@H]1CO	< 1 µM
Cc1cc(Nc2nc(Sc3ccc([N+](=O)[O-])cc3)nc3c2CCC32CCN(C(=O)C(C)(C)C)CC2)n[nH]1	< 1 µM
COc1c(Nc2cc(C)[nH]n2)nc(Sc2ccc(S(=O)(=O)C(C)(C)c3cccc([N+](=O)[O-])c3F)cc2F)nc1N1CCN(C(=O)CN(C)C)CC1	< 1 µM
COc1c(C)nc(Sc2ccc(NC(=O)C3CC3)cc2)nc1Nc1cc(C)[nH]n1	< 1 µM
Cc1cc(Nc2nc(Sc3ccc(NC(=O)C4CC4)cc3)nc3c2C(C)CC3)n[nH]1 (centres unmarked)	< 1 µM
CC(=O)N1CCN(c2nc(Sc3ccc(NC(=O)C4CC4)cc3)nc(Nc3cc(C)[nH]n3)c2C)CC1	< 1 µM
CNC(=O)Nc1ccc(Sc2nc(Nc3cc(C)[nH]n3)c(C)c(N3CCN(C(=O)COC)CC3)n2)cc1	< 1 µM
COc1c(Nc2cc(C)[nH]n2)nc(Sc2ccc(S(=O)(=O)Cc3cccc(C)c3)cc2)nc1N1CCN(CCN(C)C)CC1	< 1 µM
CCOc1c(Nc2cc(C)[nH]n2)nc(Sc2ccc(NC(=O)C3CCCC3)cc2)nc1N1CCN(CC2CC2)CC1	0.1 to 1 µM
COc1c(Nc2cc(C)[nH]n2)nc(Sc2ccc(S(=O)(=O)C(C)(C)c3c(F)c(F)cc(F)c3F)cc2F)nc1N1CCC(N(C)C)CC1	< 1 µM
COc1c(Nc2cc(C)[nH]n2)nc(Sc2ccc(NC(C)=O)cc2)nc1C1=CCN(CCN(C)C)CC1	< 1 µM
COc1c(Nc2cc(C)[nH]n2)nc(Sc2ccc(NC(C)=O)cc2)nc1N1CCN(C(N)=O)CC1	< 1 µM
COc1c(Nc2cc(C)[nH]n2)nc(Sc2ccc(NC(=O)C3CC3)cc2)nc1N(C)C(C)C	0.1 to 1 µM
COc1c(Nc2cc(C)[nH]n2)nc(Sc2ccc(S(C)(=O)=O)cc2)nc1N1CCN(CCN2CCN(C)CC2)CC1	< 1 µM
CC(=O)Nc1ccc(Sc2nc(Nc3cc(C)[nH]n3)c(C)c(N(CCO)C(C)C)n2)cc1	< 1 µM
CCOc1c(Nc2cc(C)[nH]n2)nc(Sc2ccc(NC(=O)C3CCCC3)cc2)nc1N1CCN(C)CC1	0.1 to 1 µM
COc1c(Nc2cc(C)[nH]n2)nc(Sc2ccc(S(=O)(=O)Cc3ncc[nH]3)cc2)nc1N1CCN(CCN(C)C)CC1	< 1 µM
CSc1nc(Nc2cc(C)[nH]n2)c(C)c(N2CCN(CCN(C)C)CC2)n1	< 1 µM

SMILES	IC50
COc1c(Nc2cc(C)[nH]n2)nc(Sc2ccc(S(=O)(=O)c3ccccc3)cc2)nc1N1CCN(CCN(C)C)CC1	< 1 µM
COc1c(Nc2cc(C)[nH]n2)nc(Sc2ccc(S(=O)(=O)C(C)(C)c3c(F)c(F)cc(F)c3F)cc2F)nc1N1CC[C@@H](N(C)C)C1	< 1 µM
CNC(=O)Nc1ccc(Sc2nc(Nc3cc(C)[nH]n3)c(C)c(N3CCCCC3)n2)cc1	< 1 µM
CCN(CC)c1nc(Sc2ccc(NC(=O)C3CCCC3)cc2)nc(Nc2cc(C)[nH]n2)c1C	0.1 to 1 µM
CCN(C)c1nc(Sc2ccc(NC(=O)C3CC3)cc2)nc(Nc2cc(C)[nH]n2)c1C	< 1 µM
CCOc1c(Nc2cc(C)[nH]n2)nc(Sc2ccc(NC(=O)C3CC3)cc2)nc1N1CCN(C2CCNCC2)CC1	0.1 to 1 µM
CC(=O)Nc1ccc(Sc2nc(Nc3cc(C)[nH]n3)c(C)c(N3CCOCC3)n2)cc1	< 1 µM
CCS(=O)(=O)c1ccc(Sc2nc(Nc3cc(C)[nH]n3)c(OC)c(C3CCN(CCN(C)C)CC3)n2)cc1	< 1 µM
COc1c(Nc2cc(C)[nH]n2)nc(Sc2ccc(NC(C)=O)cc2)nc1N1CCC(CC(=O)N(C)C)CC1	< 1 µM
COc1c(Nc2cc(C)[nH]n2)nc(Sc2ccc(NC(=O)C3CC3)cc2)nc1N1CCOCC1	< 1 µM
COc1c(Nc2cc(C)[nH]n2)nc(Sc2ccc(NC(=O)C3CC3)cc2)nc1N1CCN(C(C)=O)CC1	< 1 µM
COc1c(Nc2cc(C)[nH]n2)nc(Sc2ccc(S(=O)(=O)Cc3ccccc3C#N)cc2)nc1N1CCN(CCN(C)C)CC1	< 1 µM
COc1c(Nc2cc(C)[nH]n2)nc(Sc2ccc(S(=O)(=O)C(C)C)cc2)nc1N1CCN(CCN(C)C)CC1	< 1 µM
COc1c(Nc2cc(C)[nH]n2)nc(Sc2ccc(NC(C)=O)cc2)nc1N1CCC(O)CC1	< 1 µM
CCOc1c(Nc2cc(C)[nH]n2)nc(Sc2ccc(NC(C)=O)cc2)nc1N1CCCCC1	0.1 to 1 µM
CCOc1c(Nc2cc(C)[nH]n2)nc(SC)nc1N1CCN(CCN(C)C)CC1	0.1 to 1 µM
COc1c(Nc2cc(C)[nH]n2)nc(Sc2ccc(S(=O)(=O)Cc3cccc([N+](=O)[O-])c3F)cc2F)nc1N1CCC(NC(C)=O)CC1	< 1 µM
COc1c(Nc2cc(C)[nH]n2)nc(Sc2ccc(S(=O)(=O)CC(C)C)cc2)nc1N1CCN(CCN(C)C)CC1	< 1 µM
COCCN1CCN(c2nc(Sc3ccc(NC(=O)C4CC4)cc3)nc(Nc3cc(C)[nH]n3)c2OC)CC1	< 1 µM
COc1c(Nc2cc(C)[nH]n2)nc(Sc2ccc(S(=O)(=O)C(C)(C)c3cccc([N+](=O)[O-])c3F)cc2F)nc1N1CC[C@H](N(C)C)C1	< 1 µM

SMILES	IC50
Cc1cc(Nc2nc(Sc3ccc(N)cc3)nc(N(C)C(C)C)c2C)n[nH]1	< 1 µM
COc1c(Nc2cc(C)[nH]n2)nc(Sc2ccc(C(C)=O)cc2)nc1N1CCN(CCN(C)C)CC1	< 1 µM
CCOc1c(Nc2cc(C)[nH]n2)nc(SC)nc1N1CCN(C)CC1	0.1 to 1 µM
COCCN1CCN(c2nc(Sc3ccc(NC(=O)C4CCCC4)cc3)nc(Nc3cc(C)[nH]n3)c2OC)CC1	< 1 µM
COc1c(Nc2cc(C)[nH]n2)nc(Sc2ccc(NC(C)=O)cc2)nc1N1CCN(CCN2CCCCC2)CC1	< 1 µM
COc1c(Nc2cc(C)[nH]n2)nc(Sc2ccc(S(=O)(=O)Cc3cccc([N+](=O)[O-])c3)cc2F)nc1N1CCOC[C@@H]1C	< 1 µM
COc1c(Nc2cc(C)[nH]n2)nc(Sc2ccc(S(C)(=O)=O)cc2Cl)nc1N1CCC(CCN(C)C)CC1	< 1 µM
CNc1nc(Sc2ccc(NC(=O)C3CC3)cc2)nc(Nc2cc(C)[nH]n2)c1OC	< 1 µM
CCOc1c(Nc2cc(C)[nH]n2)nc(Sc2ccc(NC(=O)C3CC3)cc2)nc1N(C)C [drawing 125]	< 1 µM
COc1c(Nc2cc(C)[nH]n2)nc(Sc2ccc(NC(C)=O)cc2)nc1N1CCN(CC(=O)O)CC1	< 1 µM
CC(=O)Nc1ccc(Sc2nc(Nc3cc(C)[nH]n3)c(C)c(N3CCC(C(C)=O)CC3)n2)cc1	< 1 µM
COc1c(Nc2cc(C)[nH]n2)nc(Sc2ccc(S(=O)(=O)C(C)(C)c3cccc([N+](=O)[O-])c3F)cc2F)nc1N1CCC(CC(=O)N(C)C)CC1	< 1 µM
COc1c(Nc2cc(C)[nH]n2)nc(Sc2ccc(S(=O)(=O)Cc3ccccc3)cc2)nc1N1CCN(C2CCN(Cc3ccccc3)CC2)CC1	< 1 µM
CCOc1c(Nc2cc(C)[nH]n2)nc(Sc2ccc(NC(=O)C3CC3)cc2)nc1N1CCN(CCN(C)C)CC1	0.1 to 1 µM
COc1c(Nc2cc(C)[nH]n2)nc(Sc2ccc(S(=O)(=O)Cc3cccc([N+](=O)[O-])c3)cc2F)nc1N1CCN(CCN(C)C)CC1	< 1 µM
CNCCN(C)c1nc(Sc2ccc(NC(=O)C3CC3)cc2)nc(Nc2cc(C)[nH]n2)c1C	< 1 µM
CCN(C)c1nc(Sc2ccc(NC(C)=O)cc2)nc(Nc2cc(C)[nH]n2)c1C	< 1 µM
COc1c(Nc2cc(C)[nH]n2)nc(Sc2ccc(NS(C)(=O)=O)cc2)nc1N1CCN(CCN(C)C)CC1	< 1 µM
CCC(=O)N1CCN(c2nc(Sc3ccc(NC(C)=O)cc3)nc(Nc3cc(C)[nH]n3)c2C)CC1	< 1 µM
